# Like-named read-outs stand apart in the source and are kept apart here. Square brackets hold non-standard residues; d marks the D form. Peptide text beside a SMILES is read from it. AEEA = NCCOCCOCC(=O)O
# Columns and labels:
# [1] = test system: Pseudomonas aeruginosa ATCC® 27853™; assay type: cell-based; set-up: Log reduction of Pseudomonas: dose or concentration left out as unconfirmed; settings: for Effects of Peptide Compounds on Pseudomonas aeruginosa ATCC ® 27853 ™: Table 6, 5 × 10^3 CFU/ml unless italicized = 1 × 10^5 CFU/ml
# [2] = test system: E. coli ATCC® strain 25922™; assay type: cell-based, Escherichia coli; set-up: Log reduction of E. coli: dose or concentration left out as unconfirmed; Effects of Peptide Compounds on Escherichia coli ATCC ® 25922 ™: unit not given here; settings: for Effects of Peptide Compounds on Escherichia coli ATCC ® 25922 ™: Table 6, 5 × 10^3 CFU/ml unless italicized = 1 × 10^5 CFU/ml
# Method: The three peptide compounds BCC01-5RMP (SEQ ID NO:21), BCC02-5RMP (SEQ ID NO:22), and BCC03-5RMP (SEQ ID NO:23) were assayed for in vitro bactericidal activity against Pseudomonas aeruginosa, Escherichia coli, Salmonella typhimurium, and Acinetobacter baumannii. […] The CFU remaining at the end of 60 to 180 minute incubation was determined, and the data plotted as a log reduction in CFU/ml.
# Tables 4-6 show the results of various peptides and peptide compounds against P. aeruginosa and E. coli strains. Tables 4 and 5 show the results of an investigation of the effects of peptide or peptide compounds BCC03-5RMP (SEQ ID NO:23), BCC03-MP (SEQ ID NO:24) and BCC03-5R (SEQ ID NO:20) against P. aeruginosa ATCC® strain 27853™ and E. coli ATCC® strain 25922™ (American Type Culture Collection, Manassas, Va.). […] Table 6 compares the activity of several other compounds, including the “5R” versions of BCC01, i.e., SEQ ID NO:18 (which comprises SEQ ID NO:1 with five additional arginines), the “5R” version of BCC02 (i.e., SEQ ID NO:19, which comprises SEQ ID NO:2 with five additional arginines), and BCC03-5RMP (SEQ ID NO:23), and BCC03-MP (SEQ ID NO:24, i.e., without the five additional R residues). The data generally indicate the superiority of BCC03-5RMP (SEQ ID NO:23) against E. coli, and the superiority of the 5R or 5RMP versions of the peptide over the “AEEA only” peptide against P. aeruginosa.
# [3] = LPS binding, Limulus Amebocyte Lysate (LAL) assay; set-up: species or system Pseudomonas
# Method: (§1) The well-characterized response of RAW264.7 macrophage cells was used to produce tumor necrosis-factor-alpha (TNF-α) in response to LPS to determine whether the peptides could dampen the release of this cytokine. […] Importantly, pre-treatment (3 hours prior to LPS addition) as well as post-treatment of the RAW264.7 cells (3 hours post LPS addition) with peptide dampened the cytokine release. […] The finding that the novel peptides bind and neutralize the effect of Pseudomonas LPS is of critical importance since this ensures that the novel therapeutic peptide compounds described herein will not only kill the bacteria, but will also neutralize the LPS endotoxin released by the bacteria which plays such an important role in the rapid progression of sepsis.
# (§2) BCC01-5RMP (SEQ ID NO:21), BCC02-5RMP (SEQ ID NO:22), and BCC03-5RMP (SEQ ID NO:23) were tested for their ability to bind lipopolysaccharide (LPS) using the limulus amebocyte lysate method (LAL). […] There was no statistical difference in their ability to bind LPS using the LAL technique. The ability of the peptides to neutralize LPS was assessed by determining their ability to attenuate the release of tumor necrosis factor-alpha (TNF-α) from LPS-stimulated RAW264.7 cells (a mouse macrophage cell line). […] No significant differences were observed between the three peptides to neutralize LPS as measured by cytokine release.
# [4] = test system: TNF-α release from LPS-stimulated RAW264.7 cells; assay: LPS neutralization: TNF-α release from LPS-stimulated RAW264.7 cells; assay type: cell-based, mouse; settings: Pseudomonas LPS
# Method: as §1, §2
compound,measurement,setting,value
CC[C@H](C)[C@H](NC(=O)[C@H](CC(C)C)NC(=O)[C@H](C)NC(=O)CNC(=O)CNC(=O)[C@H](CS)NC(=O)[C@H](Cc1ccccc1)NC(=O)[C@H](Cc1c[nH]cn1)NC(=O)[C@H](CCCNC(=N)N)NC(=O)CNC(=O)[C@H](CCC(N)=O)NC(=O)[C@H](CC(N)=O)NC(=O)[C@H](CCCNC(=N)N)NC(=O)[C@H](CCCNC(=N)N)NC(=O)[C@H](CCCNC(=N)N)NC(=O)[C@H](CCCNC(=N)N)NC(=O)COCCOCCNC(=O)COCCOCCN)C(=O)N[C@@H](Cc1c[nH]cn1)C(=O)N[C@@H](C)C(=O)N[C@@H](CCCNC(=N)N)C(=O)N[C@@H](Cc1ccccc1)C(=O)N[C@H](C(=O)N[C@@H](CCSC)C(=O)N[C@H](C(=O)N[C@@H](C)C(=O)N[C@@H](C)C(=O)N[C@@H](CO)C(=O)N[C@@H](CO)C(=O)N[C@@H](Cc1ccccc1)C(=O)N[C@@H](CCC(N)=O)C(=O)N[C@@H](CCCNC(=N)N)C(=O)O)[C@@H](C)O)C(C)C [BCC03-5RMP] (H-[AEEA][AEEA]RRRRNQGRHFCGGALIHARFVMTAASSFQR-OH; N-terminus assumed),Effects of Peptide Compounds on Pseudomonas aeruginosa ATCC ® 27853 ™,[1]; 0.78 μg/ml,87.4
same,Effects of Peptide Compounds on Pseudomonas aeruginosa ATCC ® 27853 ™,[1]; 1.56 μg/ml,96.6
same,Effects of Peptide Compounds on Pseudomonas aeruginosa ATCC ® 27853 ™,[1]; 3.125 μg/ml,98.4
same,Effects of Peptide Compounds on Pseudomonas aeruginosa ATCC ® 27853 ™,[1]; 6.25 μg/ml,99.8
same,Effects of Peptide Compounds on Pseudomonas aeruginosa ATCC ® 27853 ™,[1]; 12.5 μg/ml,99.9
same,Effects of Peptide Compounds on Pseudomonas aeruginosa ATCC ® 27853 ™,[1]; 25 μg/ml,100.0
same,Effects of Peptide Compounds on Pseudomonas aeruginosa ATCC ® 27853 ™,[1]; 50 μg/ml,100.0
same,Effects of Peptide Compounds on Pseudomonas aeruginosa ATCC ® 27853 ™,[1]; 100 μg/ml,100.0
same,Effects of Peptide Compounds on Pseudomonas aeruginosa ATCC ® 27853 ™,[1]; 200 μg/ml,100.0
same,Effects of Peptide Compounds on Escherichia coli ATCC ® 25922 ™,[2]; 0.78 μg/ml,12.3
same,Effects of Peptide Compounds on Escherichia coli ATCC ® 25922 ™,[2]; 1.56 μg/ml,23.0
same,Effects of Peptide Compounds on Escherichia coli ATCC ® 25922 ™,[2]; 3.125 μg/ml,32.8
same,Effects of Peptide Compounds on Escherichia coli ATCC ® 25922 ™,[2]; 6.25 μg/ml,78.7
same,Effects of Peptide Compounds on Escherichia coli ATCC ® 25922 ™,[2]; 12.5 μg/ml,99.3
same,Effects of Peptide Compounds on Escherichia coli ATCC ® 25922 ™,[2]; 25 μg/ml,99.7
same,Effects of Peptide Compounds on Escherichia coli ATCC ® 25922 ™,[2]; 50 μg/ml,99.9
same,Effects of Peptide Compounds on Escherichia coli ATCC ® 25922 ™,[2]; 100 μg/ml,99.9
same,Effects of Peptide Compounds on Escherichia coli ATCC ® 25922 ™,[2]; 200 μg/ml,99.9
same,binding of Pseudomonas LPS,[3],bound Pseudomonas LPS
same,neutralization of LPS: release of TNF-α,[4],attenuate the release of TNF-α
CC[C@H](C)[C@H](NC(=O)[C@H](CC(C)C)NC(=O)[C@H](C)NC(=O)CNC(=O)CNC(=O)[C@H](CS)NC(=O)[C@H](Cc1ccccc1)NC(=O)[C@H](Cc1c[nH]cn1)NC(=O)[C@H](CCCNC(=N)N)NC(=O)CNC(=O)[C@H](CCC(N)=O)NC(=O)[C@H](CC(N)=O)NC(=O)[C@H](CCCNC(=N)N)NC(=O)[C@H](CCCNC(=N)N)NC(=O)[C@H](CCCNC(=N)N)NC(=O)[C@H](CCCNC(=N)N)NC(=O)COCCOCCNC(=O)COCCOCCN)C(=O)N[C@@H](Cc1c[nH]cn1)C(=O)N[C@@H](C)C(=O)N[C@@H](CCCNC(=N)N)C(=O)N[C@@H](Cc1ccccc1)C(=O)N[C@H](C(=O)N[C@@H](CCSC)C(=O)N[C@H](C(=O)N[C@@H](C)C(=O)N[C@@H](C)C(=O)N[C@@H](CO)C(=O)N[C@@H](CS)C(=O)N[C@@H](Cc1ccccc1)C(=O)N[C@@H](CCC(N)=O)C(=O)N[C@@H](CCCNC(=N)N)C(=O)O)[C@@H](C)O)C(C)C [BCC01-5RMP] (H-[AEEA][AEEA]RRRRNQGRHFCGGALIHARFVMTAASCFQR-OH),Log reduction of Pseudomonas,"[1]; starting inoculum 1×10^6 CFU/ml, 60 to 180 minute incubation",5
same,Log reduction of E. coli,"[2]; 25, starting inoculum 1×10^6 CFU/ml, 60 to 180 minute incubation",3
same,binding of Pseudomonas LPS,[3],bound Pseudomonas LPS
same,neutralization of LPS: release of TNF-α,[4],attenuate the release of TNF-α
